In US11116218B2, “Isoxazole compound or a salt thereof” (OAT AGRIO CO., LTD., priority 2017, dated 2021):

How the values were obtained:
[1] = test system: two-spotted spider mites; test: Ovicidal test on two-spotted spider mites; assay type: in vivo, two-spotted spider mite; conditions: Tetranychus urticae, 144 h; 10 ppm spray, ovicidal rate 6 days after spraying
Method: A piece of non-woven fabric (4.5×5.5 cm) was suspended inside a plastic cup through an incision made in the lid of the plastic cup. After water was poured into the cup, the cup was covered with the lid. A kidney bean leaf (about 3.5×4.5 cm) was then placed on the sufficiently soaked, non-woven fabric. Twenty female adults of two-spotted spider mite were placed on the top of the leaf, and the fabric and leaf were placed in a thermostatic chamber having a temperature of 25±2° C. and a humidity of 40% and 16L8D. The next day, after the number of the female adults was adjusted once more to 20, 2 mL of a miticidal formulation containing the compound of the invention (10 ppm) prepared in the same manner as in test example 1 was sprayed onto the leaf, and the leaf was air-dried and placed in a thermostatic chamber (25±2° C. and a humidity of 50%). The ovicidal rate of the two-spotted spider mites was calculated 6 days after the spraying of the miticidal formulation.

[2] = test system: two-spotted spider mites; test: Miticidal test on two-spotted spider mite (leaf spray); assay type: in vivo; conditions: Tetranychus urticae, in Phaseolus vulgaris, 48 h, read-out: Mortality of mites (%)
Excerpt: A piece of non-woven fabric (4.5×5.5 cm) was suspended inside a plastic cup through an incision made in the lid of the plastic cup. After water was poured into the cup, the cup was covered with the lid. A kidney bean leaf (about 3.5×4.5 cm) was then placed on the sufficiently soaked, non-woven fabric. Another kidney bean leaf with two-spotted spider mites (about 30 mite samples) was placed on top of the first leaf, and the fabric and leaves were placed in a thermostatic chamber having a temperature of 25±2° C. and a humidity of 40% overnight. Next morning the top leaf was removed as the mite population had already moved to the lower leaf.
Miticidal formulations containing the compound of the invention (100 ppm and 5 ppm) were prepared by adding an aqueous solution (100 ppm) of Sorpol 355 (manufactured by Tobo Kagaku Co., Ltd.) to a methanol solution of the compound of the invention. These miticidal formulations were sprayed onto the leaves, and the leaves were air-dried and placed in a thermostatic chamber (25±2° C. and a humidity of 50%). The mortality rate of the two-spotted spider mites was calculated after 2 days.

Compound	inhibition at 10 ppm [1] [%]	mortality at 5 ppm [2] [%]	mortality at 100 ppm [2] [%]
Cc1cc(C)c(-c2cc(C(F)(F)c3ccccc3)on2)cc1SCC(F)(F)F [Compound 40, 5-(difluoro(phenyl)methyl)-3-(2,4-dimethyl-5-((2,2,2-trifluoroethyl)thio)phenyl)isoxazole]	89	33	100
Cc1cc(F)c(-c2cc(C(F)(F)F)on2)cc1[S+]([O-])CC(F)(F)F (stereo not drawn) [Compound 2, 3-(2-fluoro-4-methyl-5-((2,2,2-trifluoroethyl)sulfinyl)phenyl)-5-(trifluoromethyl)isoxazole]	100	100	100
Cc1cc(C)c([S+]([O-])CC(F)(F)F)cc1-c1cc(C(F)F)on1 (stereo not drawn) [Compound 47, 5-(difluoromethyl)-3-(2,4-dimethyl-5-((2,2,2-trifluoroethyl)sulfinyl)phenyl)isoxazole]	80	51	100
Cc1cc(C)c([S+]([O-])CC(F)(F)F)cc1-c1cc(C(F)(F)F)on1 (stereo not drawn) [Compound 26, 3-(2,4-dimethyl-5-((2,2,2-trifluoroethyl)sulfinyl)phenyl)-5-(trifluoromethyl)isoxazole]	90	98	100
CCC[S+]([O-])c1cc(-c2cc(C(F)(F)F)on2)c(F)cc1C (stereo not drawn) [Compound 35, 3-(2-fluoro-4-methyl-5-(propylsulfinyl)phenyl)-5-(trifluoromethyl)isoxazole]	100	100	100
Cc1cc(C)c(-c2cc(C(F)F)on2)cc1SCC(F)(F)F [Compound 46, 5-(difluoromethyl)-3-(2,4-dimethyl-5-((2,2,2-trifluoroethyl)thio)phenyl)isoxazole]	83	79	100
Cc1cc(Cl)c(-c2cc(C(F)(F)F)on2)cc1[S+]([O-])CC(F)(F)F (stereo not drawn) [Compound 23, 3-(2-chloro-4-methyl-5-((2,2,2-trifluoroethyl)sulfinyl)phenyl)-5-(trifluoromethyl)isoxazole]	100	100	100
Cc1cc(F)c(-c2cc(C(F)(F)c3ccccc3)on2)cc1[S+]([O-])CC(F)(F)F (stereo not drawn) [Compound 20, 5-(difluoro(phenyl)methyl)-3-(2-fluoro-4-methyl-5-((2,2,2-trifluoroethyl)sulfinyl)phenyl)isoxazole]	95	93	100
Cc1cc(Cl)c(-c2cc(C(F)(F)c3ccccc3)on2)cc1[S+]([O-])CC(F)(F)F (stereo not drawn) [Compound 53, 3-(2-chloro-4-methyl-5-((2,2,2-trifluoroethyl)sulfinyl)phenyl)-5-(difluoro(phenyl)methyl)isoxazole]	90	64	100
Cc1cc(Cl)c(-c2cc(C(F)(F)Cl)on2)cc1[S+]([O-])CC(F)(F)F (stereo not drawn) [Compound 44, 3-(2-chloro-4-methyl-5-((2,2,2-trifluoroethyl)sulfinyl)phenyl)-5-(chlorodifluoromethyl)isoxazole]	100	100	100
Cc1cc(F)c(-c2cc(C(F)F)on2)cc1[S+]([O-])CC(F)(F)F (stereo not drawn) [Compound 14, 5-(difluoromethyl)-3-(2-fluoro-4-methyl-5-((2,2,2-trifluoroethyl)sulfinyl)phenyl)isoxazole]	50	40	100
Cc1cc(Cl)c(-c2cc(C(F)F)on2)cc1[S+]([O-])CC(F)(F)F (stereo not drawn) [Compound 56, 3-(2-chloro-4-methyl-5-((2,2,2-trifluoroethyl)sulfinyl)phenyl)-5-(difluoromethyl)isoxazole]	100	100	100
Cc1ccc(-c2cc(C(F)(F)F)on2)cc1SCC(F)(F)F [Compound A, reference compound]	0	0	100
Cc1cc(F)c(-c2cc(C(F)(F)Cl)on2)cc1[S+]([O-])CC(F)(F)F (stereo not drawn) [Compound 17, 5-(chlorodifluoromethyl)-3-(2-fluoro-4-methyl-5-((2,2,2-trifluoroethyl)sulfinyl)phenyl)isoxazole]	100	98	100
Cc1cc(C)c([S+]([O-])CC(F)(F)F)cc1-c1cc(C(F)(F)Cl)on1 (stereo not drawn) [Compound 50, 5-(chlorodifluoromethyl)-3-(2,4-dimethyl-5-((2,2,2-trifluoroethyl)sulfinyl)phenyl)isoxazole]	97	96	100
Cc1cc(Cl)c(-c2cc(C(F)(F)c3ccccc3)on2)cc1SCC(F)(F)F [Compound 52, 3-(2-chloro-4-methyl-5-((2,2,2-trifluoroethyl)thio)phenyl)-5-(difluoro(phenyl)methyl)isoxazole]	32	61	100
Cc1cc(Cl)c(-c2cc(C(F)(F)Cl)on2)cc1SCC(F)(F)F [Compound 43, 3-(2-chloro-4-methyl-5-((2,2,2-trifluoroethyl)thio)phenyl)-5-(chlorodifluoromethyl)isoxazole]	100	100	100
Cc1cc(C)c(-c2cc(C(F)(F)F)on2)cc1SCC(F)(F)F [Compound 25, 3-(2,4-dimethyl-5-((2,2,2-trifluoroethyl)thio)phenyl)-5-(trifluoromethyl)isoxazole]	–	10	100
Cc1cc(C)c(-c2cc(C(F)(F)Cl)on2)cc1SCC(F)(F)F [Compound 49, 5-(chlorodifluoromethyl)-3-(2,4-dimethyl-5-((2,2,2-trifluoroethyl)thio)phenyl)isoxazole]	0	6	100
Cc1cc(Cl)c(-c2cc(C(F)(F)F)on2)cc1SCC(F)(F)F [Compound 22, 3-(2-chloro-4-methyl-5-((2,2,2-trifluoroethyl)thio)phenyl)-5-(trifluoromethyl)isoxazole]	–	73	100
Cc1cc(F)c(-c2cc(C(F)(F)F)on2)cc1SCC(F)(F)F [Compound 1, 3-(2-fluoro-4-methyl-5-((2,2,2-trifluoroethyl)thio)phenyl)-5-(trifluoromethyl)isoxazole]	–	30	100
Cc1cc(F)c(-c2cc(C(F)(F)C(F)(F)F)on2)cc1[S+]([O-])CC(F)(F)F (stereo not drawn) [Compound 5, 3-(2-fluoro-4-methyl-5-((2,2,2-trifluoroethyl)sulfinyl)phenyl)-5-(perfluoroethyl)isoxazole]	90	95	100
Cc1cc(F)c(-c2cc(C(F)F)on2)cc1SCC(F)(F)F [Compound 13, 5-(difluoromethyl)-3-(2-fluoro-4-methyl-5-((2,2,2-trifluoroethyl)thio)phenyl)isoxazole]	98	48	100
Cc1cc(F)c(-c2noc(C(F)(F)F)c2C)cc1[S+]([O-])CC(F)(F)F (stereo not drawn) [Compound 38, 3-(2-fluoro-4-methyl-5-((2,2,2-trifluoroethyl)sulfinyl)phenyl)-4-methyl-5-(trifluoromethyl)isoxazole]	100	100	100
Cc1cc(F)c(-c2cc(C(F)(F)C(F)(F)C(F)(F)F)on2)cc1[S+]([O-])CC(F)(F)F (stereo not drawn) [Compound 8, 3-(2-fluoro-4-methyl-5-((2,2,2-trifluoroethyl)sulfinyl)phenyl)-5-(heptafluoropropyl)isoxazole]	90	100	100
Cc1cc(Cl)c(-c2cc(C(F)F)on2)cc1SCC(F)(F)F [Compound 55, 3-(2-chloro-4-methyl-5-((2,2,2-trifluoroethyl)thio)phenyl)-5-(difluoromethyl)isoxazole]	100	100	100
Cc1cc(F)c(-c2cc(C(F)(F)c3ccccc3)on2)cc1SCC(F)(F)F [Compound 19, 5-(difluoro(phenyl)methyl)-3-(2-fluoro-4-methyl-5-((2,2,2-trifluoroethyl)thio)phenyl)isoxazole]	100	100	100
